Test results: patent publication US9629855B2, “Pharmaceutical composition for treatment of eye pain, containing PGE2 synthesis inhibitor” (INDUSTRY-ACADEMIC COOPERATION FOUNDATION, YONSEI UNIVERSITY, priority 2011, dated 2017)

These molecules were tested on patients having an ocular pain symptom (assay: Number of eye blinks after intraocular administration of PGE2 synthesis inhibitors to eye pain patients). Settings: blinks for 5 min.
Type: in vivo, human
Description: PGE2 synthesis inhibitors were administered intraocularly to patients having an ocular pain symptom, and whether the number of eye blinks of the patient group was reduced compared to that of a control group was examined. The PGE2 synthesis inhibitors used were 15-deoxy-Δ^12,14-PGJ2, exisulind, NS-398, leukotriene C4, mk-886, analogues of MK-886, MF63, thienopyrrole, naphthalene disulphonamide, resveratrol, and γ-hydroxybutenolide.
As a result, it was shown that, when the PGE synthesis inhibitors were administered intraocularly, they reduced ocular discomfort to thereby reduce the number of eye blinks (Table 2).

Question: `CCCCC/C=C/C=C1/C(=O)C=C[C@@H]1C/C=C\CCCC(=O)O` [15-deoxy-Δ^12,14-PGJ2] was tested. Which “Number of eye blinks of treated group (n = 10) for 5 min” value (from here on “Number of eye blinks … for 5 min”) did it give?
Answer: Its value is 11.

Question: Which “Number of eye blinks … for 5 min” value does the source give for `CC1=C(CC(=O)O)c2cc(F)ccc2/C1=C\c1ccc(S(C)(=O)=O)cc1` [Exisulind] here?
Answer: The value was 14.

Question: With `CCCCC/C=C\C\C=C/C=C/C=C/[C@@H](SC[C@H](NC(=O)CC[C@H](N)C(=O)O)C(=O)NCC(=O)O)[C@@H](O)CCCC(=O)O` [Leukotriene C4] as the molecule, how does the “Number of eye blinks … for 5 min” value read?
Answer: The value was 17.

Question: Which “Number of eye blinks … for 5 min” value does the source give for `CS(=O)(=O)Nc1ccc([N+](=O)[O-])cc1OC1CCCCC1` [NS-398] here?
Answer: The value was 13.

Question: `Oc1ccc(C=Cc2cc(O)cc(O)c2)cc1` [Resveratrol] was tested. Which “Number of eye blinks … for 5 min” value did it give?
Answer: Its value is 17.

Question: `c1cc2sccc2[nH]1` [Thienopyrrole] was tested. Which “Number of eye blinks … for 5 min” value did it give?
Answer: The value was 13.

Question: `CC(C)c1ccc2c(c1)c(SC(C)(C)C)c(CC(C)(C)C(=O)O)n2Cc1ccc(Cl)cc1` [mk-886] was tested. Which “Number of eye blinks … for 5 min” value did it give?
Answer: Its value is 15.

The molecules below were run on patients having an ocular pain symptom (assay: Number of eye blinks after intraocular administration of selective COX2 inhibitors to ocular pain patients). Settings: control group = Diclofenac.
Type: in vivo, human

Question: How did the “Number of eye blinks of treated group (n = 3)” value (“Number of eye blinks … (n = 3)” for short) turn out when `Cc1cnc(NC(=O)C2=C(O)c3ccccc3S(=O)(=O)N2C)s1` [Meloxicam] was run?
Answer: The value was 20.

Question: For `CS(=O)(=O)Nc1ccc([N+](=O)[O-])cc1Oc1ccccc1` [Nimesulud], which “Number of eye blinks … (n = 3)” value is on record?
Answer: The value was 16.

Question: How did the “Number of eye blinks … (n = 3)” value turn out when `CCN1CC/C(=C\c2cc(C(C)(C)C)c(O)c(C(C)(C)C)c2)S1(=O)=O` [S-2474, 3,5-di-tert-buryl-4-hydroxybenzylidene] was run?
Answer: Its value is 15.
